Structures can show the parent of a compound that is named as a salt.

Consider 80 compounds from the RepoRT retention time repository (doi:10.1007/s11306-011-0298-z).

The series in a line: RP, Waters ACQUITY UPLC HSS T3, 100 × 2.1 mm, 1.8 µm, 30 °C, 0.3 mL/min, estimated dead time 0.73 min; A: water + 0.1% formic acid, pH 3; B: methanol + 0.1% formic acid, pH 3; gradient (min/%B) 0/0 6/0 56/100 60/100. To be noted: stereoisomer not certain.
On to `O=C(O)[C@H](O)[C@@H](O)C(=O)O` [L-(+)-tartaric acid], for which the LC retention time is 1.51 min.

Consider `O=C(O)c1cc(O)cc(O)c1` [3,5-dihydroxybenzoic acid], for which the LC retention time was 14.3 min. Turning to `Nc1ncnc2c1ncn2C1OC(COP(=O)(O)O)C(O)C1O` (stereo not given), the LC retention time was 4.08 min.

On to `COc1cc(C=Cc2cc(O)cc(OC3OC(CO)C(O)C(O)C3O)c2)ccc1O` (stereo not given) [isorhapontin], for which the LC retention time is 26.1 min. With `N[C@@H](CCC(=O)O)C(=O)O` [L-glutamic acid], the LC retention time was 1.31 min. Next, `COc1cc(-c2oc3cc(O)cc(O)c3c(=O)c2O)ccc1O` [isorhamnetin]: 37.1 min; `CC(C)=C1CCC(C)CC1=O` [(R)-(+)-pulegone]: 38.9 min; `CCOC(N)=O` [urethane]: 7.1 min. To `OCC(O)C(O)C(O)C(O)CO` (stereo not given) [mannitol] belongs 1.38 min; to `O=c1cc(-c2ccc(O)c(O)c2)oc2c(C3OC(CO)C(O)C(O)C3O)c(O)cc(O)c12` (stereo not given) [orientin], 25.5 min; to `O=c1cc[nH]c(=O)[nH]1` [uracil], 2.98 min. Next, `O=C(O)C(=O)O` [oxalic acid]: 1.3 min; `CC1=C(C=CC(C)O)C(C)(C)CCC1` (stereo not given) [b-ionol]: 46.3 min. Consider `COC(=O)C1=COC(O)C2C(CO)=CCC12` (stereo not given) [genipin], for which the LC retention time is 24.2 min.

With `NCCc1c[nH]c2ccc(O)cc12` [serotonin], the LC retention time is 11.1 min.

On to `O=C1CCC(=O)N1O` [N-hydroxysuccinimide], for which the LC retention time is 2 min.

For `O=C(O)c1c[nH]c2ccccc12` [indole-3-carboxylic acid], the LC retention time is 25.6 min. To `CCCCCCC(=O)O` [n-heptanoic acid] belongs 36.1 min; to `CCCCCCCCC=CCCCCCCCC(=O)O` [oleic acid], 54.9 min.

For `NCCc1ccccc1` [phenethylamine], the LC retention time was 12.1 min. As for `O=c1c(-c2ccc(O)cc2)coc2cc(O)ccc12` [daidzein], the LC retention time was 32.5 min. To `NCCCNCCCCNCCCN` [spermine] belongs 0.98 min; to `O=Cc1ccc(O)c(O)c1` [3,4 dihydroxybenzaldehyde], 16.2 min. Take `O=C(O)C(O)C(O)CO` (stereo not given) [threonic acid]: the LC retention time was 1.45 min. Next, `COc1cc(O)c2c(c1)OC(c1ccc(O)cc1)CC2=O` (stereo not given) [sakuranetin]: 39 min; `CC(C)CCN` [isopentylamine]: 6.9 min. To `OCC1OC(Oc2cc3c(O)cc(O)cc3[o+]c2-c2cc(O)c(O)c(O)c2)C(O)C(O)C1O` (stereo not given) [delphinidin-3-glucoside] belongs 20.9 min; to `CCCCCCCCCCCC=CC=CC=CC=CC=CC(=O)O` [Docosapentaenoic acid], 54 min.

Consider `COC1C(O)C(O)C(O)C(O)C1O` (stereo not given) [pinitol], for which the LC retention time is 1.41 min. Next, `O=P(O)(O)OCC1OC(O)C(O)C(O)C1O` (stereo not given) [glucose-6-phosphate]: 1.22 min.

Regarding `O=C(O)C1OC(Oc2c(-c3ccc(O)c(O)c3)oc3cc(O)cc(O)c3c2=O)C(O)C(O)C1O` (stereo not given) [quercetin 3-glucuronide], the LC retention time was 28.4 min. Next, `CC(C)[C@H](N)C(=O)O` [L-valine]: 2.19 min; `O=c1c(O)c(-c2ccc(O)cc2O)oc2cc(O)cc(O)c12` [morin]: 31.9 min. As to `CC(C)C(C)C=CC(C)C1CCC2C3=CC=C4CC(O)CCC4(C)C3CCC21C` (stereo not given) [ergosterol], the LC retention time was 58.9 min. To `NC(=O)CCCCC1CCSS1` (stereo not drawn) [Alpha lipoamide] belongs 29 min. Regarding `CC1OC(OC2C(Oc3cc(O)c4c(c3)OC(c3ccc(O)cc3)CC4=O)OC(CO)C(O)C2O)C(O)C(O)C1O` (stereo not given) [naringin], the LC retention time was 28.6 min. Next, `CC(C)C[C@H](N)C(=O)O` [L-leucine]: 4.98 min; `C=CC(C)(O)CCC1C(C)(O)CCC2C(C)(C)CCCC21C` (stereo not given) [sclareol]: 50.1 min. As for `COc1ccc(C=O)cc1` [anisaldehyde], the LC retention time is 27.1 min. To `O=C(C=Cc1ccc(O)cc1)OC(C(=O)O)C(O)C(=O)O` (stereo not drawn) [trans coutaric acid] belongs 18 min; to `O=C(O)c1cc(O)c(O)c(O)c1` [gallic acid], 8.95 min; to `Cc1cc(O)c2c(c1)C(=O)c1cc(O)cc(O)c1C2=O` [emodin], 46.4 min. `O=C(O)C1OC(Oc2c(-c3ccc(O)cc3)oc3cc(O)cc(O)c3c2=O)C(O)C(O)C1O` (stereo not given) [kaempferol 3-O-glucuronide]: the LC retention time was 30.7 min. Next, `N[C@@H](CCSC[C@H](N)C(=O)O)C(=O)O` [L-cystathionine]: 1.21 min; `O=C1c2c(O)cc(O)cc2OC(c2ccc(O)c(O)c2)C1O` (stereo not given) [taxifolin]: 25.3 min.

Regarding `N[C@@H](Cc1c[nH]c2ccccc12)C(=O)O` [L-tryptophan], the LC retention time was 16 min. To `CC(=O)NC(CS)C(=O)O` (stereo not given) [acetylcysteine] belongs 8 min. To `CC(CCC(=O)O)C1CCC2C3C(O)CC4CC(O)CCC4(C)C3CCC12C` (stereo not given) [chenodeoxycholic acid] belongs 49.4 min. With `O=c1cc(-c2ccc(O)cc2)oc2cc(OC3OC(CO)C(O)C(O)C3OC3OCC(O)(CO)C3O)cc(O)c12` (stereo not given) [apiin], the LC retention time was 29.6 min. To `O=C(O)CCC(=O)O` [succinic acid] belongs 4.97 min; to `O=c1c(-c2ccc(O)cc2)coc2cc(O)cc(O)c12` [genistein], 35.1 min. Next, `Oc1ccc(/C=C\c2cc(O)cc(O)c2)cc1` [cis-resveratrol]: 30.4 min; `CC(C)=CCCC(C)C1CCC2(C)C3=C(CCC12C)C1(C)CCC(O)C(C)(C)C1CC3` (stereo not given) [lanosterol]: 58.3 min; `CC(CCC(=O)O)C1CCC2C3CCC4CC(O)CCC4(C)C3CC(O)C12C` (stereo not given) [deoxycholic acid]: 49.6 min. Next, `NC(CCC(=O)NC(CS)C(=O)O)C(=O)O` (stereo not given) [gamma-glutamylcysteine]: 3.27 min; `O=C1CCCN1` [2-pyrrolidinone]: 5.9 min.

For `CCC[C@H](N)C(=O)O` [L-norvaline], the LC retention time is 2.3 min.

In the case of `CCOC(=O)Cc1c[nH]c2ccccc12` [ethyl indole-3-acetate], the LC retention time was 35.5 min. To `NC(CCC(=O)NC(CS)C(=O)NCC(=O)O)C(=O)O` [L-glutathione] belongs 3.4 min; to `CC(=O)OCC1OC(Oc2c(-c3ccc(O)c(O)c3)oc3cc(O)cc(O)c3c2=O)C(O)C(O)C1O` (stereo not given) [quercetin-3-O-glucose-6''-acetate], 31 min. Consider `O=c1c(O)c(-c2ccc(OC3OC(CO)C(O)C(O)C3O)c(O)c2)oc2cc(O)cc(O)c12` (stereo not given) [quercetin 4'-glucoside], for which the LC retention time is 30.4 min.

Turning to `OCC1OC(Oc2cc3c(OC4OC(CO)C(O)C(O)C4O)cc(O)cc3[o+]c2-c2ccc(O)c(O)c2)C(O)C(O)C1O` (stereo not given) [cyanidin-3,5-diglucoside], the LC retention time is 18.4 min. As to `Nc1ccc(C(=O)O)cc1` [4-aminobenzoic acid], the LC retention time was 12.3 min. To `C1CCNCC1` [piperidine hydrochloride] belongs 2.5 min; to `Cc1ncc(COP(=O)(O)O)c(CN)c1O` [pyridoxamine 5-phosphate], 1.41 min; to `O=C[C@H](O)[C@@H](O)[C@@H](O)[C@H](O)C(=O)O` [D-(+)galacturonic acid], 1.33 min. To `CC(CCC(=O)O)C1CCC2C3C(O)CC4CC(O)CCC4(C)C3CC(O)C12C` (stereo not given) [cholic acid] belongs 46.8 min; to `O=C(O)CC(O)(CC(=O)O)C(=O)O` [citric acid], 3.91 min.

For the compound `Oc1cc(O)c2cc(OC3OCC(O)C(O)C3O)c(-c3ccc(O)c(O)c3)[o+]c2c1` (stereo not given) [cyanidin-3-arabinoside], the LC retention time was 23.1 min. To `Oc1ccc(C=Cc2cc(O)cc3c2C(c2cc(O)cc4c2C(c2cc(O)cc(O)c2)C(c2ccc(O)cc2)O4)C(c2ccc(O)cc2)O3)cc1` (stereo not drawn) [E-cis-miyabenol C] belongs 32.6 min; to `O=C(C=Cc1ccc(O)c(O)c1)OC1CC(OC(=O)C=Cc2ccc(O)c(O)c2)(C(=O)O)CC(O)C1O` (stereo not given) [1,3 - dicaffeoylquinic acid], 24.9 min.

As to `O=C(O)C(O)C(O)C(O)C(O)CO` (stereo not given) [gluconic acid], the LC retention time is 1.4 min. To `Oc1cc(O)c2cc(O)c(-c3ccc(O)c(O)c3)[o+]c2c1` [cyanidin] belongs 28.9 min; to `O=C1CC(c2ccc(O)c(O)c2)c2c(cc(O)c3c2OC(c2ccc(O)c(O)c2)C(O)C3)O1` (stereo not given) [caffeic acid+catechin condensation product], 26.1 min. To `O=C(O)CCCC(=O)O` [glutaric acid] belongs 10.2 min. To `CC(=O)CCC=C(C)CCC=C(C)C` [geranyl acetone] belongs 46.5 min. With `CCCCCCCC(=O)O` [octanoic acid], the LC retention time is 40 min. Turning to `O=c1c(OC2OC(CO)C(O)C(O)C2O)c(-c2ccc(O)cc2)oc2cc(O)cc(O)c12` (stereo not given) [kaempferol 3-glucoside], the LC retention time was 31.2 min. On to `C[n+]1cccc(C(=O)[O-])c1` [trigonelline], for which the LC retention time is 1.67 min.

In the case of `Nc1ncnc2nc[nH]c12` [adenine*], the LC retention time is 2.33 min.
